Results published in US10370380B2, “Octahydropyrrolo[3,4-c]pyrrole derivatives and uses thereof” (Sunshine Lake Pharma Co., Ltd., priority 2015, dated 2019).

Key:
[1] = biological target: T1, humanized OX1 receptor (Homo sapiens, UniProt O43613); test: Antagonistic effect on humanized OX1 receptor, calcium flux by fluorescence detection in CHO cells; assay type: cell-based
T1 construct: expressed in transfected cells; host or cells: CHO (Chinese hamster ovary) cells
T1 sequence (O43613 1-425): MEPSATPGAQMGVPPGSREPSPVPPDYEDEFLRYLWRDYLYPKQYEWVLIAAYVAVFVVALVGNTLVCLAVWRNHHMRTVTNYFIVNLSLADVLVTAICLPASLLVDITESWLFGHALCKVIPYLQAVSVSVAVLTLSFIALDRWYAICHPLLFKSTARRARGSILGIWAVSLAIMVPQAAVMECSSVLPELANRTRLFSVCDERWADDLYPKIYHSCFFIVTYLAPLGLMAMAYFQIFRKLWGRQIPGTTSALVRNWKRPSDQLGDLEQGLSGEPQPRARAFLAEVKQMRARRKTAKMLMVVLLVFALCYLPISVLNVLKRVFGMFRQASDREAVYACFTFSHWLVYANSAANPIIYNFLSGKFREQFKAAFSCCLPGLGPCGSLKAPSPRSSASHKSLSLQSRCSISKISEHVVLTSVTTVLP
Experimental: The capability of the compounds provided herein to antagonize humanized OX1 receptor expressed in Chinese hamster ovary (CHO) cells was evaluated by the influence of the compounds disclosed herein on calcium flux in cells induced by agonist detected by a method of fluorescence detection. The cells were suspended in DMEM culture medium (invitrogen), and then added to a microplate with an average density of 2×10^4 cells/well. The Hank's balanced salt solution (pH 7.4) containing fluorescent probes (Fluo4 NW, Invitrogen), probenecid (invitrogen), 20 mM hydroxyethyl piperazine acetic sulfuric acid (invitrogen) was added to the above microplate, and then incubated together with the cells at 37° C. for 60 min, further incubated at 22° C. for 15 min. The microplate was placed in a microplate reader (CellLux, PerkinElmer), and to which was added the test compound or reference antagonist or Hank's balanced salt solution, 5 min later, 3 nM of orexin A or Hank's balanced salt solution (as a blank contrast) was added. […] The experimental results were expressed as an inhibition percentage relative to a control group (the group with 3 nM of orexin A).
The standard reference antagonist is SB334867, and IC50 values were calculated by the dose-effect curve obtained from a series of concentrations of the experimental test.

[2] = Pharmacokinetic evaluation after intravenous or gavage administration to rats; assay type: in vivo, SD rats; conditions: SD, rat, in vivo
Experimental: The compounds disclosed herein were administered in form of a saline solution containing 5% DMSO, 5% Kolliphor HS 15, 2% (2% HCl) and 88% Saline, or a solution containing 10% DMSO, 10% Kolliphor HS 15 and 80% physiological saline to the subject animals. For intravenous administration, the animals were administered with a dose of 1 mg/kg or 2 mg/kg, and vein blood samples (0.3 mL) were collected at the time points of 0.083, 0.25, 0.5, 1.0, 2.0, 4.0, 6.0, 8.0 and 24 h after drug administration; plasma samples were collected by centrifugation of the vein blood samples at 3000 rpm or 4000 rpm for 10 minutes, and stored at −20° C. or −70° C. For gavage administration, the animals were administered with a dose of 2.5 mg/kg or 5 mg/kg, and vein blood samples (0.3 mL) were collected at the time points of 0.25, 0.5, 1.0, 2.0, 4.0, 6.0, 8.0 and 24 h after drug administration; plasma samples were collected by centrifugation at 3000 rpm or 4000 rpm for 10 minutes, and stored at −20° C. or −70° C. The positive control is suvorexant.
The above plasma samples were analyzed by the LC-MS/MS system.

[3] = biological target: T2, hERG channel (Homo sapiens, UniProt Q12809); test: hERG fluorescence polarization assay (potential of inducing QT interval prolongation); assay type: binding
T2 construct: purchased Invitrogen
Experimental: The potential of the compound disclosed herein inducing QT interval prolongation was evaluated by detecting if the compound would block the hERG channel. The specific test method is as follows:
Precisely weighed compound disclosed herein was dissolved in DMSO to formulate a solution at the highest concentration of 10.0 mM, and then the solution was diluted to a initial concentration of 120.0 μM with hERG FP Assay Buffer (Invitrogen); the hERG Tracer Red stock solution (Invitrogen) and the positive control E-4031 stock solution (Invitrogen) were respectively diluted to initial concentrations of 4.0 nM and 120.0 μM with hERG FP Assay Buffer (Invitrogen). […]
The above-mentioned solution of the compound disclosed herein and E-4031 at the initial concentration of 120 μM were respectively diluted with hERG FP Assay Buffer 5-fold in series to provide 8 concentration of 120.0 μM, 24.0 μM, 4.8 μM, 960.0 nM, 192.0 nM, 38.4 nM, 7.7 nM and 1.5 nM. […] After that, the 384-well plate was put into an oscillator (PHMP-4, Grant-sio), in 25° C., 250 rpm, to incubate for 4 hours, and the fluorescence polarization values were measured by multi-function microplate reader (PHERAStarFS, BMG LABTECH) and corrected with the minimum and maximum fluorescence polarization values of E-4031, and the IC50 of the compound disclosed herein was calculated by GraphPad software. […]

T2 sequence (Q12809 whole entry): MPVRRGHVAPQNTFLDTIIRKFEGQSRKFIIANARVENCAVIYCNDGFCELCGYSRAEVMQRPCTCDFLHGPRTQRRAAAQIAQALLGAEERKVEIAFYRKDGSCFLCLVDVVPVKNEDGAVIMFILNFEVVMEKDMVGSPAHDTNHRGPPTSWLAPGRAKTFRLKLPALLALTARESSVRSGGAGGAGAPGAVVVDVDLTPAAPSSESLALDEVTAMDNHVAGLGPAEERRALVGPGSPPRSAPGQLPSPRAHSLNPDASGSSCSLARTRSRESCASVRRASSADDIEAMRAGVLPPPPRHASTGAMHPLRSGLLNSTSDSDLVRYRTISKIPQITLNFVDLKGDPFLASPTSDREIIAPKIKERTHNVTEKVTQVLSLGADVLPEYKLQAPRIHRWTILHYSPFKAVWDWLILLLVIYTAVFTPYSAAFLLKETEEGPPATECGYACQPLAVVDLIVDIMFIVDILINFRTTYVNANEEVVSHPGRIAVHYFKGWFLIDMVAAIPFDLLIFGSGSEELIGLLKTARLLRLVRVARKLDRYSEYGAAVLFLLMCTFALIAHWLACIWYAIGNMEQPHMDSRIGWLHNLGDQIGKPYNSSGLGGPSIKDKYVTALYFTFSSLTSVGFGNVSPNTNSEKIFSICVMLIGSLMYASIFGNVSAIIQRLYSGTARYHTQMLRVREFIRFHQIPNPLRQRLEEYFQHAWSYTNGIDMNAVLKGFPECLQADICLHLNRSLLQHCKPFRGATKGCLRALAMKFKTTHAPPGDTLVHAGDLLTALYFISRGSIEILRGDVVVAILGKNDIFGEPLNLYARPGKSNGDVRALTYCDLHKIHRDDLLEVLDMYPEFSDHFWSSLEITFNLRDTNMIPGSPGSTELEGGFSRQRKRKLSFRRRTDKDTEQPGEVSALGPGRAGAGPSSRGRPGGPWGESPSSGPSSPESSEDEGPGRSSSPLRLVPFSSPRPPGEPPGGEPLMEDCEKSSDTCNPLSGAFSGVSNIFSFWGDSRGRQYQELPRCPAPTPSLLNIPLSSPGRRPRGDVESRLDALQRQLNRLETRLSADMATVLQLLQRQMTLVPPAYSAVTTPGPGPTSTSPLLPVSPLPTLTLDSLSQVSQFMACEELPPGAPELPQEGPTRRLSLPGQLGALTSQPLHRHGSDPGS

Cc1ccc(-n2nccn2)c(C(=O)N2CC3CN(c4nc5cc(Cl)ccc5o4)CC3C2)c1 (stereo not drawn) [Example 1, (5-(5-chlorobenzo[d]oxazol-2-yl)hexahydropyrrolo[3,4-c]pyrrol-2(1H)-yl)(5-methyl-2-(2H-1,2,3-triazol-2-yl)phenyl)methanone]
IC50 [1]: 0.604 µM | AUC(0-inf) ([2]; iv, 1 mg/kg): 417 ng·h/mL | AUC(0-t) ([2]; iv, 1 mg/kg): 415 ng·h/mL | Cmax ([2]; iv, 1 mg/kg): 646 ng/mL | MRT inf ([2]; iv, 1 mg/kg): 0.638 h | Vd ([2]; iv, 1 mg/kg): 1.53 L/kg | clearance ([2]; iv, 1 mg/kg): 40 mL/min/kg | half-life ([2]; iv, 1 mg/kg): 0.676 h | AUC(0-inf) ([2]; po, 2.5 mg/kg): 659 ng·h/mL | AUC(0-t) ([2]; po, 2.5 mg/kg): 482 ng·h/mL | Cmax ([2]; po, 2.5 mg/kg): 181 ng/mL | F ([2]; po, 2.5 mg/kg): 50.1% | MRT inf ([2]; po, 2.5 mg/kg): 3.03 h | half-life ([2]; po, 2.5 mg/kg): 2.21 h | IC50 [3]: 3.28 µM
